Measured values published in publication PMC12150283, “Synthesis of new Ag(I) and Cd(II) hydrozanomide-based complexes with antibacterial and anticancer properties” (RSC Advances, 2025).

Key:
[1] = system: Enterococcus faecalis ATCC 29212; assay: MIC determination; assay type: cell-based; conditions: E. faecalis ATCC 29212; 18 h
Experimental: (§1) The antibacterial activity of tested samples was assessed against both gram-positive bacteria (Staphylococcus aureus ATCC 25923, Staphylococcus aureus ATCC 6538, Staphylococcus epidermidis ATCC 12228, Enterococcus faecalis ATCC 29212, Listeria monocytogenes ATCC 19115, Bacillus subtilis ATCC 6633, Bacillus cereus ATCC 10876) and gram-negative bacteria (Escherichia coli ATCC 10530, Salmonella typhimurium ATCC 14028). Antibacterial properties were evaluated using both the dilution method (employing DMSO and 96-well plates) and the diffusion-well method (using Mueller Hinton Agar, Merck, Germany).
(§2) The minimum inhibitory concentrations (MICs) of the tested samples were evaluated against a panel of reference microorganisms obtained from the American Type Culture Collection (ATCC), including Gram-negative bacteria (Escherichia coli ATCC 10530, Salmonella typhimurium ATCC 14028), and Gram-positive bacteria (Staphylococcus aureus ATCC 25923, Staphylococcus aureus ATCC 6538, Staphylococcus epidermidis ATCC 12228, Enterococcus faecalis ATCC 29212, Listeria monocytogenes ATCC 19115, Bacillus subtilis ATCC 6633), and one strain (Bacillus cereus ŁOCK 0807) obtained from the Pure Culture of Industrial Microorganisms of the Institute of Fermentation Technology and Microbiology ŁOCK 105 (Łódź, Poland).
(§3) The microorganism cultures with a density of 1.5 × 10^8 CFU mL^−1 (corresponding to a McFarland standard of 0.5) were plated on Mueller–Hinton Agar (Merck, Germany) following the procedures recommended by the European Committee on Antimicrobial Susceptibility Testing (EUCAST).[47] Wells measuring 10 mm in diameter were cut into the medium. The tested compounds were dissolved in a DMSO solution, which was recommended due to their chemical structures. Subsequently, 100 μL of prepared solutions containing the tested compounds at concentrations ranging from x μg mL^−1 to x μg mL^−1 were added to each well. The plates were incubated at 30 °C (for Bacillus subtilis and Bacillus cereus) or 37 °C (for other bacteria) for 18 hours. After incubation, the minimum inhibitory concentration (MIC value) was determined (the lowest concentration of the tested compounds that prevents bacterial growth) and expressed in μg mL^−1. The experiment was conducted in three independent replicates. Ciprofloxacin (Sigma Aldrich, Saint Louis, MO, USA) was used as a reference antimicrobial agent against Gram-negative bacteria, while vancomycin (Sigma Aldrich, Saint Louis, MO, USA) was used as a reference antimicrobial agent against Gram-positive bacteria.

[2] = system: Staphylococcus epidermidis ATCC 12228; assay: MIC determination; assay type: cell-based; conditions: S. epidermidis ATCC 12228; 18 h
Experimental: as §1, §2, §3

[3] = system: Staphylococcus aureus ATCC 6538; assay: MIC determination; assay type: cell-based; conditions: S. aureus ATCC 6538; 18 h
Experimental: as §1, §2, §3

[4] = system: Escherichia coli ATCC 10530; assay: MIC determination; assay type: cell-based; conditions: Escherichia coli ATCC 10530; 18 h
Experimental: as §1, §2, §3

[5] = system: Salmonella typhimurium ATCC 14028; assay: MIC determination; assay type: cell-based; conditions: S. typhimurium ATCC 14028, 18 h
Experimental: as §1, §2, §3

[6] = system: Bacillus cereus ŁOCK 0807; assay: MIC determination; assay type: cell-based; conditions: Bacillus cereus ŁOCK 0807; 18 h
Experimental: as §1, §2, §3

[7] = system: Listeria monocytogenes ATCC 19115; assay: MIC determination; assay type: cell-based; conditions: Listeria monocytogenes ATCC 19115; 18 h
Experimental: as §1, §2, §3

[8] = system: Bacillus subtilis ATCC 6633; assay: MIC determination; assay type: cell-based; conditions: 18 h
Experimental: as §1, §2, §3

[9] = system: Staphylococcus aureus ATCC 25923; assay: MIC determination; assay type: cell-based; conditions: S. aureus ATCC 25923, 18 h
Experimental: as §1, §2, §3

[10] = system: S. epidermidis ATCC 12228; assay: Diffusion-well method, inhibition zones; assay type: cell-based, Staphylococcus epidermidis; conditions: 500 µg/mL, wells 10 mm
Experimental: as §1
(§4) 24 hour bacterial cultures with a density of 1–2 × 10^8 CFU mL^−1 were plated (0.1 mL) on Mueller–Hinton Agar (Merck, Germany). Subsequently, wells with a diameter of 10 mm were cut out from and filled with 100 μL of the tested compound at a concentration of 10–500 μg mL^−1 (diluted in DMSO). After an 18-hour incubation at either 30 °C (for Bacillus ssp.) or 37 °C (for other tested microorganisms), the inhibition zones around the wells were measured, and the results were expressed in millimetres (Table S9 ^†).

B. subtilis ATCC 6633 = assay: Diffusion-well method, inhibition zones; assay type: cell-based, Bacillus subtilis; conditions: 500 µg/mL, wells 10 mm
Experimental: as §1, §4

[11] = Time-dependent UV-vis solution stability in DMSO; assay type: physicochemical; conditions: 0 min to 48 h, room temperature
Source text: The stability of metal complexes is a crucial property that provides insight into their interactions with biological molecules, as it directly impacts their reactivity, bioavailability, and effectiveness in therapeutic applications. Additionally, the solubility of these complexes in dimethyl sulfoxide (DMSO) is of considerable importance, as solubility data are essential for optimizing storage conditions and ensuring compatibility with biological assays.[39] DMSO, a widely used solvent in drug discovery, serves as a medium that supports the stability and bioavailability of complexes under assay conditions, which is critical for maintaining the integrity of analytical protocols and enabling accurate assessments of biological activity. For the obtained complexes, the time-dependent UV-vis investigations in DMSO (Fig. 5 and S9 ^†) were carried out from 0 min to 48 h (0 min, 30 min, 1 h, 2 h, 3 h, 24 h, 48 h).
The sample solutions (50 μL (1.0 × 10^−3 M)) of the complexes were prepared in DMSO (Sigma Aldrich, ≥99.9%). The absorption spectra of the complexes were measured with increasing time (0 min, 30 min, 60 min, 2 h, 3 h, 24 h, 48 h) at room temperature. All measurements were performed on the Shimadzu UV-2401PC.

S. aureus ATCC 6538 = assay: Diffusion-well method, inhibition zones; assay type: cell-based, Staphylococcus aureus; conditions: 500 µg/mL, wells 10 mm
Experimental: as §1, §4

S. aureus ATCC 25923 = assay: Diffusion-well method, inhibition zones; assay type: cell-based, Staphylococcus aureus; conditions: 500 µg/mL, wells 10 mm
Experimental: as §1, §4

B. cereus ŁOCK 0807 = assay: Diffusion-well method, inhibition zones; assay type: cell-based, Bacillus cereus; conditions: 500 µg/mL, wells 10 mm
[12] = system: S. Typhimurium ATCC 14028; assay: Diffusion-well method, inhibition zones; assay type: cell-based, Salmonella typhimurium; conditions: 500 µg/mL, wells 10 mm
Experimental: as §1, §4

E. faecalis ATCC 29212 = assay: Diffusion-well method, inhibition zones; assay type: cell-based, Enterococcus faecalis; conditions: 500 µg/mL, wells 10 mm
Experimental: as §1, §4

With `NC(=NN=Cc1ccccc1)c1cncc(Cl)n1.O.O=[N+]([O-])[O-].[Ag+]` [Complex 1, AgL1NO3 × H2O] as the compound, how does the MIC [1] read?
Its MIC is 50 µg/mL.

And the MIC [2]?
Its MIC is 10 µg/mL.

What about the MIC [3] of the same compound?
The MIC was less than 10 µg/mL.

What about the MIC [4] of the same compound?
Its MIC is less than 10 µg/mL.

And the MIC [5]?
Its MIC is less than 10 µg/mL.

What about the MIC ([5]; listed as 1) of the same compound?
Its MIC is less than 10 µg/mL.

And the MIC [6]?
Its MIC is 50 µg/mL.

And the MIC [7]?
Its MIC is less than 10 µg/mL.

And the MIC [8]?
Its MIC is 50 µg/mL.

What about the MIC [9] of the same compound?
Its MIC is less than 10 µg/mL.

And the MIC ([9]; listed as 1)?
The MIC was less than 10 µg/mL.

And the Inhibition zone [10]?
Its Inhibition zone is 18 mm.

What about the Inhibition zone (B. subtilis ATCC 6633) of the same compound?
Its Inhibition zone is 17 mm.

What about the hypochromic effect [11] of the same compound?
Its hypochromic effect is 0.84%.

What about the Inhibition zone (S. aureus ATCC 6538) of the same compound?
Its Inhibition zone is 16 mm.

And the Inhibition zone (S. aureus ATCC 25923)?
The Inhibition zone was 20 mm.

What about the Inhibition zone (B. cereus ŁOCK 0807) of the same compound?
Its Inhibition zone is 17 mm.

What about the Inhibition zone [12] of the same compound?
Its Inhibition zone is 17 mm.

What about the Inhibition zone (E. faecalis ATCC 29212) of the same compound?
Its Inhibition zone is 17 mm.
